Patent publication US12331044B2, “Inhibitors of histone deacetylase useful for the treatment or prevention of HIV infection” (Merck Sharp & Dohme LLC, priority 2018, dated 2025)
pIC50: −log10 of the molar value. Where two headings read alike, the source gives them in different places.

Legend:
HDAC6 [1] = biological target: T1, HDAC6 (Homo sapiens (Human), UniProt Q9UBN7)
[2] = biological target: T2, human HDAC3/SMRT heterodimer (Homo sapiens (Human), UniProt O15379)
human HDAC2 = human HDAC2 (Homo sapiens (Human), UniProt Q92769); assay: HDAC2 inhibition assay (modified FLUOR DE LYS, 384-well); type: biochemical; settings: 40 μM substrate BML-KI104, 3 h pre-incubation, read-out: HDAC2 IC50; for pIC50: […] enzyme; for IC50: […] nM enzyme
KARN cells (Jurkat 2C4) [3] = settings: luciferase induction, 2 μM SAHA = 100%
human HDAC8 = human HDAC8 (Homo sapiens (Human), UniProt Q9BY41); assay: HDAC8 inhibition assay (modified FLUOR DE LYS, 384-well); type: biochemical; settings: 200 μM substrate BML-KI178, 3 h pre-incubation, read-out: HDAC8 IC50; for pIC50: […] enzyme; for IC50: […] nM enzyme
Description: The histone deacetylase activities of HDAC1, HDAC2, HDAC3, HDAC6, and HDAC8 were measured in modified FLUOR DE LYS assays in 384-well format. In this assay, HDAC enzymes are initially incubated with an F-acetyl (or -trifluoroacetyl)-L-lysine-containing substrate with a C-terminal amide having aminomethylcoumarin as the amine component. HDACs cleave the F-acetyl group, rendering the resulting product susceptible to AMC cleavage by trypsin. The released AMC is then detected by its fluorescence. […] All steps were performed at room temperature (23° C.). The assay was performed by pre-incubating serial dilutions of test compounds with the target HDAC prior to initiation with substrate. […] Final conditions used for each assay were: 1. […] The reactions were stopped and developed by addition of 30 ul of HDAC developer solution containing a saturating level of HDAC inhibitor as follows: 1. […] For data analysis, background subtracted product (fluorescence) vs. time data for each inhibitor concentration was fitted using a 4-parameter fit.

human HDAC1 [4] = biological target: T3, human HDAC1 (Homo sapiens (Human), UniProt Q13547)
HDAC6 [5] = biological target: T1, HDAC6; assay: biochemical
KARN cells (Jurkat 2C4) [6] = assay: cells; settings: Homo sapiens
[7] = biological target: T2, human HDAC3/SMRT heterodimer; assay: biochemical
human HDAC1 [8] = biological target: T3, human HDAC1; assay: biochemical
[9] = read-out: Karn EC50 nM 0.1% NHS, 0.1% normal human serum
[10] = read-out: Karn EC50 nM 5% NHS, 5% normal human serum
[11] = read-out: Karn EC50 nM 0.1% NHS, 0.1% normal human serum, luciferase induction, 2 μM SAHA = 100%
[12] = read-out: Karn EC50 nM 5% NHS, 5% normal human serum, luciferase induction, 2 μM SAHA = 100%
[13] = read-out: Karn EC50 nM 0.1% NHS

T2 sequence (O15379 whole entry): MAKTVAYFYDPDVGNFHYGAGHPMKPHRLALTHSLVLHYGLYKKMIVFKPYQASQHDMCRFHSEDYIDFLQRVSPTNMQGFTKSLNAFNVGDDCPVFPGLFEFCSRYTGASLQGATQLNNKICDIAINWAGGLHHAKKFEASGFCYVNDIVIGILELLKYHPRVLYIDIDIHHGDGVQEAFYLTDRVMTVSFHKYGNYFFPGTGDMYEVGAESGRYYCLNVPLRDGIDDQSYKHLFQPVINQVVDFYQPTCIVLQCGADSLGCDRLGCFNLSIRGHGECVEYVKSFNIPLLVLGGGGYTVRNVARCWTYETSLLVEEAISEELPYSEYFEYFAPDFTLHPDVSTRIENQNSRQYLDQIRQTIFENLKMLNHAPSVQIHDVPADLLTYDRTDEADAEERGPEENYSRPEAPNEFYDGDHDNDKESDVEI
T2 sequence (Q9Y618 1-899 partner): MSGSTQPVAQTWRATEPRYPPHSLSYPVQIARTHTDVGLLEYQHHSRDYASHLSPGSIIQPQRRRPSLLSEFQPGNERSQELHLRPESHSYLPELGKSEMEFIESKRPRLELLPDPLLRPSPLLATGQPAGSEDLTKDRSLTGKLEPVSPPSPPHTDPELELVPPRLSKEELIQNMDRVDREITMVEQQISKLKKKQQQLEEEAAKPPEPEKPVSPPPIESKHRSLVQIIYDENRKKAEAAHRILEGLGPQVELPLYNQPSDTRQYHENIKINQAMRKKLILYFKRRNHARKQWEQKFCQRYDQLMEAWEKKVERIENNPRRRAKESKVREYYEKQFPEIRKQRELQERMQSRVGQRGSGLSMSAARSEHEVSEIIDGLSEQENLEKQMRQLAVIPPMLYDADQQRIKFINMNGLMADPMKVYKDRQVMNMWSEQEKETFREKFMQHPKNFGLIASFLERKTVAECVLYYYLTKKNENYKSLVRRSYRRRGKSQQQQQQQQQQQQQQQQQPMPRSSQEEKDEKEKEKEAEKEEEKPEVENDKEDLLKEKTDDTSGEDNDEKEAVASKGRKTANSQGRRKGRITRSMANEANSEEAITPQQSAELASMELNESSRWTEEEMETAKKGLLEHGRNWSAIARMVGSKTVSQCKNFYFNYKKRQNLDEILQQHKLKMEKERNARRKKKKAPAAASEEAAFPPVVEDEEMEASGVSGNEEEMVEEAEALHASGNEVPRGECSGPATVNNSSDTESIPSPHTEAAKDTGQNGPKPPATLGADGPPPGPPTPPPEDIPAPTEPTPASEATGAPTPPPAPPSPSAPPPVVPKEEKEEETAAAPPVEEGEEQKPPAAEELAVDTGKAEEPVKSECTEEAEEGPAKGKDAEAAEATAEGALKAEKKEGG
T3 sequence (Q13547 whole entry): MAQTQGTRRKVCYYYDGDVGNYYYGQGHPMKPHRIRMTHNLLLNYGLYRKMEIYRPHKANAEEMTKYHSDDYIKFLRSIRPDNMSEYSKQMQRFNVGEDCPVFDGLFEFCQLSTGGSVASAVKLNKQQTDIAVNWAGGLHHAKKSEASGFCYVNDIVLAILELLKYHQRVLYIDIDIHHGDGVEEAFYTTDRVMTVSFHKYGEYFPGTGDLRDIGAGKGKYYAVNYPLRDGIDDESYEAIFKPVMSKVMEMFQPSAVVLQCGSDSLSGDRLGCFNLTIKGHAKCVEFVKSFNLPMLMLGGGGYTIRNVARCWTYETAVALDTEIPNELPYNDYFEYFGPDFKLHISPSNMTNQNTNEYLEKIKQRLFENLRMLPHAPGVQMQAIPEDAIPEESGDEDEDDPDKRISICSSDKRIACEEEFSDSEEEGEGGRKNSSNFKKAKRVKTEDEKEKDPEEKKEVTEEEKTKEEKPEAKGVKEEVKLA
human HDAC2, sequence (Q92769 whole entry): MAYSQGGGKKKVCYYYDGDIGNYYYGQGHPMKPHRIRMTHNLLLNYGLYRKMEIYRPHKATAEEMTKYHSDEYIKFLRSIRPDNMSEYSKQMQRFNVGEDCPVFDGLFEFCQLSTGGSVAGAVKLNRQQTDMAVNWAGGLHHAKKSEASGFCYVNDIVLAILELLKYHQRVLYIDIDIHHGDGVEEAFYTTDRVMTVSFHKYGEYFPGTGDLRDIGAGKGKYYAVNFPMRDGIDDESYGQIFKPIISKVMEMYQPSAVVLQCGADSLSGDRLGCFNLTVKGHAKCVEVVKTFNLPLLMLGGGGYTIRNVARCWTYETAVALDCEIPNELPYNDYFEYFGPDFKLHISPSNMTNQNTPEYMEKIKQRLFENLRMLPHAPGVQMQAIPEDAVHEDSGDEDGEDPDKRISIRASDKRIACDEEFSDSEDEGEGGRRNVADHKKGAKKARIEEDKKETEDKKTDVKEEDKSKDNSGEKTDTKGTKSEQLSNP
T1 sequence (Q9UBN7 whole entry): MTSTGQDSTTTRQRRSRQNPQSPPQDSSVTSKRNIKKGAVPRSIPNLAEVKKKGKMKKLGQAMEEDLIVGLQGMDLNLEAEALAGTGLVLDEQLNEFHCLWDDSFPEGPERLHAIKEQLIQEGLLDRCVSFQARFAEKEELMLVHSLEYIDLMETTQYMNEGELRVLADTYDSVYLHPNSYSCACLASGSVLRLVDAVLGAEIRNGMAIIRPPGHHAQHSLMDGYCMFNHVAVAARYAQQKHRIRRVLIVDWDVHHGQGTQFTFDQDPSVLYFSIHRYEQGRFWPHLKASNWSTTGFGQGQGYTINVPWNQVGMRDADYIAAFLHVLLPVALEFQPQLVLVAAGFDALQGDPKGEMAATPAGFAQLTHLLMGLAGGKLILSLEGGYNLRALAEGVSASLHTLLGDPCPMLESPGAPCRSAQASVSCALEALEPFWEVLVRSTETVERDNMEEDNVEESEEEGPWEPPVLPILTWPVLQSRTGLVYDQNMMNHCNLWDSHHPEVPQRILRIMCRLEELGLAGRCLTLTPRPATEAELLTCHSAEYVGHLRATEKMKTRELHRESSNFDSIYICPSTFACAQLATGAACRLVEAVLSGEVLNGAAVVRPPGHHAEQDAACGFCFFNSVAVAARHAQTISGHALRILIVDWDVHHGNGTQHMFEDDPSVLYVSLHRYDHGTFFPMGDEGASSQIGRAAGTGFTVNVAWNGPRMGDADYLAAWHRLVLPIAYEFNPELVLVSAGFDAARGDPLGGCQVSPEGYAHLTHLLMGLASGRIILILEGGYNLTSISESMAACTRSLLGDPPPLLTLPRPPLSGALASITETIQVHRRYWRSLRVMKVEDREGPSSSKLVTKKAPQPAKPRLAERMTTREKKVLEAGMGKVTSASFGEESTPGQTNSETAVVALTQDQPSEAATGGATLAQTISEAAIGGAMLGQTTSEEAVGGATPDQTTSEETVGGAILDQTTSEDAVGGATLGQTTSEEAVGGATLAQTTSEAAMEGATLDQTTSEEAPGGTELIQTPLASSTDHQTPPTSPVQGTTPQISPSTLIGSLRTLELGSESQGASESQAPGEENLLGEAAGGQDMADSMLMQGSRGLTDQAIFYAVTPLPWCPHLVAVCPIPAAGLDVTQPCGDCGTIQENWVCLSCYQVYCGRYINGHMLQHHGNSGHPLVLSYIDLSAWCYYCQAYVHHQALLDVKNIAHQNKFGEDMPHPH
human HDAC8, sequence (Q9BY41 whole entry): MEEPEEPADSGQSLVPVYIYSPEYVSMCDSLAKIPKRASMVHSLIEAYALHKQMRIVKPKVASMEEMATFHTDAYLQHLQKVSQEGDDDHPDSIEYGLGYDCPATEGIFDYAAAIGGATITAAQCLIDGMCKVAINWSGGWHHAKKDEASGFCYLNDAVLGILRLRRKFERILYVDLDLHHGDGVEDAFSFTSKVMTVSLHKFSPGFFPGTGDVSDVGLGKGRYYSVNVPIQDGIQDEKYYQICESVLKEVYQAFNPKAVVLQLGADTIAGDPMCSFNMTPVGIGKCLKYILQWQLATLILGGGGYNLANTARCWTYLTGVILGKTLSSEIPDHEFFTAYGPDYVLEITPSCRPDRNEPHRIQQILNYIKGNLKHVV

Structure (SMILES)	pIC50 (HDAC6 [1])	pIC50 [2]	pIC50 (human HDAC2)	EC50 (KARN cells (Jurkat 2C4) [3]; [9]) [nM]	EC50 (KARN cells (Jurkat 2C4) [3]; [10]) [nM]	pIC50 (human HDAC8)	pIC50 (human HDAC1 [4])	pIC50 (HDAC6 [5])	EC50 (KARN cells (Jurkat 2C4) [6]; [11]) [nM]	EC50 (KARN cells (Jurkat 2C4) [6]; [12]) [nM]	IC50 (human HDAC2) [nM]	IC50 (human HDAC8) [nM]	pIC50 [7]	pIC50 (human HDAC1 [8])	EC50 (KARN cells (Jurkat 2C4) [6]; [13]) [nM]	EC50 (KARN cells (Jurkat 2C4) [6]; read-out: Karn EC50 nM 5% NHS) [nM]
Cc1ccc2cc(-c3cnc(C(CCCCCC(=O)c4ncco4)NC(=O)[C@H]4CC45CCN(C)CC5)o3)ccc2n1 (stereo partly drawn) [Example 111, (1S)-6-methyl-N-(1-(5-(2-methylquinolin-6-yl)oxazol-2-yl)-7-(oxazol-2-yl)-7-oxoheptyl)-6-azaspiro[2.5]octane-1-carboxamide]	6.37	8.85	8.28	70	48	6.28	9.12									
CCN1CCC2(CC1)C[C@@H]2C(=O)N[C@@H](CCCCCC(=O)c1ccon1)c1cc(-c2cc3ccc(C)nc3cc2OC)on1 [Example 145, (S)-6-ethyl-N-((S)-7-(isoxazol-3-yl)-1-(5-(7-methoxy-2-methylquinolin-6-yl)isoxazol-3-yl)-7-oxoheptyl)-6-azaspiro[2.5]octane-1-carboxamide]								< 6.05	49	66	14	5.1	8.38	8.47		
CN1CC(C(=O)N[C@@H](CCCCCC(=O)c2ccon2)c2[nH]c(-c3ccccc3F)nc2Cl)C1 [Example 105, (S)-N-(1-(4-chloro-2-(2-fluorophenyl)-1H-imidazol-5-yl)-7-(isoxazol-3-yl)-7-oxoheptyl)-1-methylazetidine-3-carboxamide]								5.07	2.8	3.5	0.37	29	10.34	9.92		
O=C1NC(CCCCCC(=O)c2ncco2)(c2nc(-c3ccc(F)cc3)c[nH]2)CO1 (stereo not shown) [Example 66, 4-(4-(4-fluorophenyl)-1H-imidazol-2-yl)-4-(6-(oxazol-2-yl)-6-oxohexyl)oxazolidin-2-one]								≤ 4.35	380	530	15	4400	8.51	8.36		
O=C1CC[C@@](CCCCCC(=O)c2ccon2)(c2nc(-c3ccc(C4CC4)cc3F)c[nH]2)N1 [Example 68, (S)-5-(4-(4-cyclopropyl-2-fluorophenyl)-1H-imidazol-2-yl)-5-(6-(isoxazol-3-yl)-6-oxohexyl)pyrrolidin-2-one]								< 6.05	34	110	5	230	9.26	9.00		
Cc1ccc2cc(-c3cn(C)c([C@@H](N)CCCCCC(=O)c4ncco4)n3)ccc2n1 [Example 29, (S)-7-amino-7-(1-methyl-4-(2-methylquinolin-6-yl)-1H-imidazol-2-yl)-1-(oxazol-2-yl)heptan-1-one]								5.29	1800	1800	63	20000	7.74	7.82		
Cc1ccc2cc(-c3c[nH]c([C@H](CCCCCC(=O)c4ncco4)NC4CCOCC4)n3)ccc2n1 [Example 79, (S)-7-(5-(2-methylquinolin-6-yl)-1H-imidazol-2-yl)-1-(oxazol-2-yl)-7-((tetrahydro-2H-pyran-4-yl)amino)heptan-1-one]								≤ 4.35			35	17000	7.92	8.18	1000	1300
COc1cc2nc(C)ccc2cc1-c1cnc([C@H](CCCCCC(=O)c2ncco2)NC(=O)C2COCCO2)[nH]1 (stereo partly drawn) [Example 174, N-[(1S)-1-[5-(7-methoxy-2-methylquinolin-6-yl)-1H-imidazol-2-yl]-7-(1,3-oxazol-2-yl)-7-oxoheptyl]-1,4-dioxane-2-carboxamide]	< 6.05	9.27	8.43	37	80	6.96	8.85									
COc1cc2nc(C)ccc2cc1-c1cnc([C@H](CCCCCC(=O)c2ncco2)NC(=O)CN(C)C)[nH]1 [Example 89, (S)-2-(dimethylamino)-N-(1-(5-(7-methoxy-2-methylquinolin-6-yl)-1H-imidazol-2-yl)-7-(oxazol-2-yl)-7-oxoheptyl)acetamide]								5.77			3.4	69	8.82	9.10	13	32
CN(C)CC(=O)N[C@@H](CCCCCC(=O)c1ncco1)c1ncc(-c2ccc3nccnc3c2)[nH]1 [Example 95, (S)-2-(dimethylamino)-N-(7-(oxazol-2-yl)-7-oxo-1-(5-(quinoxalin-6-yl)-1H-imidazol-2-yl)heptyl)acetamide]								6.15	63	84	8.6	68	8.66	8.89		
Cc1ccc2cc(-c3cnc(C(N)CCCCCC(=O)c4ncco4)o3)ccc2n1 (stereo not shown) [Example 26, 7-amino-7-(5-(2-methylquinolin-6-yl)oxazol-2-yl)-1-(oxazol-2-yl)heptan-1-one]								≤ 4.35	6200	6900	35	8000	7.89	7.96		
COc1cc2nc(C)ccc2cc1-c1cnc([C@H](CCCCCC(=O)c2ccon2)NC(=O)C2CN(C)C2)o1 [Example 108, (S)-N-(7-(isoxazol-3-yl)-1-(5-(7-methoxy-2-methylquinolin-6-yl)oxazol-2-yl)-7-oxoheptyl)-1-methylazetidine-3-carboxamide]								< 6.05	6.4	6.1	0.35	5.8	9.72	9.74		
COc1ncccc1-c1cnc([C@@H](N)CCCCCC(=O)c2ncco2)o1 [Example 28, (S)-7-amino-7-(5-(2-methoxypyridin-3-yl)oxazol-2-yl)-1-(oxazol-2-yl)heptan-1-one]								6.18	1900	2000	32	> 900	8.03	8.05		
COc1cc2nc(C)ccc2cc1-c1cnc([C@H](CCCCCC(=O)c2ncco2)NC(=O)C2CCC3(CC2)CN(C)C3)[nH]1 [Example 117, (S)-N-(1-(5-(7-methoxy-2-methylquinolin-6-yl)-1H-imidazol-2-yl)-7-(oxazol-2-yl)-7-oxoheptyl)-2-methyl-2-azaspiro[3.5]nonane-7-carboxamide]								6.17	320	320	5.8	21	8.85	9.09		
O=C1CC[C@@](CCCCCC(=O)c2ccon2)(c2nc(-c3ccccc3F)c[nH]2)N1 [Example 69, (S)-5-(4-(2-fluorophenyl)-1H-imidazol-2-yl)-5-(6-(isoxazol-3-yl)-6-oxohexyl)pyrrolidin-2-one]								< 6.05	96	260	4.2	210	9.10	9.04		
COC(=O)N[C@@H](CCCCCC(=O)c1ncco1)c1ncc(-c2cc3ccc(C)nc3cc2OC)[nH]1 [Example 86, (S)-methyl (1-(5-(7-methoxy-2-methylquinolin-6-yl)-1H-imidazol-2-yl)-7-(oxazol-2-yl)-7-oxoheptyl)carbamate]								7.40	80	160	9.9	160	8.82	8.70		
O=C1CCCC[C@@](CCCCCC(=O)c2ccon2)(c2nc(-c3ccccc3F)c[nH]2)N1 [Example 72, (S)-7-(4-(2-fluorophenyl)-1H-imidazol-2-yl)-7-(6-(isoxazol-3-yl)-6-oxohexyl)azepan-2-one]								< 6.05	650	1900	89	> 900	7.77	7.77		
N[C@@H](CCCCCC(=O)c1ccon1)c1nc(Cl)c(-c2ccc(F)cc2)[nH]1 [Example 193, (S)-7-amino-7-(4-chloro-5-(4-fluorophenyl)-1H-imidazol-2-yl)-1-(isoxazol-3-yl)heptan-1-one]								≤ 4.35	130	1800	7.4	1600	8.74	8.74		
COc1ncccc1-c1c[nH]c([C@@H](N)CCCCCC(=O)c2ccon2)n1 [Example 33, (S)-7-amino-1-(isoxazol-3-yl)-7-(4-(2-methoxypyridin-3-yl)-1H-imidazol-2-yl)heptan-1-one]								≤ 4.35	61	84	4.3	110	9.08	9.14		
